Measured values published in PubChem BioAssay (NCI).
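Exposure lasted 48 hours, with cells grown in 96-well plates and compounds tested at five concentrations. Definition used: TGI = concentration required for complete inhibition of growth.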

Legend:
Test in all cases: NCI anticancer screen, dose series, 48 h
[1] = tested on: A498 renal
[2] = tested on: A549 NSCLC
[3] = tested on: ACHN renal
[4] = tested on: BT-549 breast
[5] = tested on: CAKI-1 renal
[6] = tested on: CCRF-CEM leukemia
[7] = tested on: COLO 205 colon
[8] = tested on: EKVX NSCLC
[9] = tested on: HCC-2998 colon
[10] = tested on: HCT-116 colon
[11] = tested on: HCT-15 colon
[12] = tested on: HL-60(TB) leukemia
[13] = tested on: HOP-92 NSCLC
[14] = tested on: HS 578T breast
[15] = tested on: HT29 colon
[16] = tested on: IGROV1 ovarian
[17] = tested on: K-562 leukemia
[18] = tested on: KM12 colon
[19] = tested on: LOX IMVI melanoma
[20] = tested on: M14 melanoma
[21] = tested on: MALME-3M melanoma
[22] = tested on: MCF7 breast
[23] = tested on: MDA-MB-231 breast
[24] = tested on: MDA-MB-435
[25] = tested on: MOLT-4 leukemia
[26] = tested on: NCI-H23 lung
[27] = tested on: NCI-H460 lung
[28] = tested on: NCI-H522 lung
[29] = tested on: NCI/ADR-RES ovarian
[30] = tested on: OVCAR-3 ovarian
[31] = tested on: OVCAR-4 ovarian
[32] = tested on: OVCAR-5 ovarian
[33] = tested on: OVCAR-8 ovarian
[34] = tested on: PC-3 prostate
[35] = tested on: RPMI-8226 leukemia
[36] = tested on: SF-268 CNS
[37] = tested on: SF-295 CNS
[38] = tested on: SK-MEL-2 melanoma
[39] = tested on: SK-MEL-28 melanoma
[40] = tested on: SK-MEL-5 melanoma
[41] = tested on: SN12C renal
[42] = tested on: SNB-19 CNS
[43] = tested on: SW-620 colon
[44] = tested on: TK-10 renal
[45] = tested on: U251 CNS
[46] = tested on: UACC-257 melanoma
[47] = tested on: UACC-62 melanoma
[48] = tested on: UO-31 renal
[49] = tested on: 786-0 renal
[50] = tested on: DU-145 prostate
[51] = tested on: HOP-62 NSCLC
[52] = tested on: RXF 393 renal
[53] = tested on: SF-539 CNS
[54] = tested on: SNB-75 CNS
[55] = tested on: SR leukemia
[56] = tested on: T-47D breast

Structure (SMILES): Cc1sc(Cc2ccccc2)nc1-c1ccc(N)cc1
- TGI [1]: > 100 µM
- TGI [2]: > 100 µM
- TGI [3]: > 100000 nM
- TGI [4]: 83.4 µM
- TGI [5]: 83.8 µM
- TGI [6]: 72.8 µM
- TGI [7]: 56.2 µM
- TGI [8]: > 100 µM
- TGI [9]: 35.5 µM
- TGI [10]: 40.7 µM
- TGI [11]: 46.9 µM
- TGI [12]: > 100 µM
- TGI [13]: 43.4 µM
- TGI [14]: > 100 µM
- TGI [15]: 54.8 µM
- TGI [16]: 89.8 µM
- TGI [17]: > 100 µM
- TGI [18]: 46.3 µM
- TGI [19]: 29.8 µM
- TGI [20]: 43.7 µM
- TGI [21]: 90.2 µM
- TGI [22]: 44.1 µM
- TGI [23]: 84.8 µM
- TGI [24]: 37.7 µM
- TGI [25]: 51.1 µM
- TGI [26]: > 100000 nM
- TGI [27]: 50.2 µM
- TGI [28]: 38.7 µM
- TGI [29]: > 100000 nM
- TGI [30]: 68.8 µM
- TGI [31]: 51.1 µM
- TGI [32]: > 100 µM
- TGI [33]: > 100000 nM
- TGI [34]: 89.7 µM
- TGI [35]: 71.4 µM
- TGI [36]: > 100 µM
- TGI [37]: > 100 µM
- TGI [38]: 37.7 µM
- TGI [39]: 61.4 µM
- TGI [40]: 35.6 µM
- TGI [41]: 40.2 µM
- TGI [42]: > 100 µM
- TGI [43]: > 100 µM
- TGI [44]: > 100 µM
- TGI [45]: 74.7 µM
- TGI [46]: 84.5 µM
- TGI [47]: 37.8 µM
- TGI [48]: > 100000 nM

Structure (SMILES): C/C(=N\Nc1nc2ccccc2s1)c1ncccn1
- TGI [49]: 15.8 µM
- TGI [1]: > 100 µM
- TGI [2]: > 20 µM
- TGI [3]: 177 nM
- TGI [4]: 3.42 µM
- TGI [5]: 5.62 µM
- TGI [6]: > 100 µM
- TGI [7]: 1.19 µM
- TGI [50]: > 100 µM
- TGI [8]: 4.54 µM
- TGI [9]: 11.9 µM
- TGI [11]: 2.45 µM
- TGI [12]: > 100 µM
- TGI [51]: 5.78 µM
- TGI [13]: 1.1 µM
- TGI [14]: > 37.2 µM
- TGI [16]: 0.923 µM
- TGI [17]: > 100 µM
- TGI [18]: 9.46 µM
- TGI [21]: > 100 µM
- TGI [22]: > 100 µM
- TGI [23]: > 64.6 µM
- TGI [24]: > 100 µM
- TGI [25]: > 53.9 µM
- TGI [26]: 1110 nM
- TGI [27]: 15.6 µM
- TGI [28]: 16.5 µM
- TGI [29]: 68.1 nM
- TGI [30]: 2.06 µM
- TGI [32]: 22.7 µM
- TGI [33]: 50.5 nM
- TGI [34]: 11.1 µM
- TGI [52]: 4.68 µM
- TGI [36]: 5.12 µM
- TGI [37]: 3.78 µM
- TGI [53]: 20 µM
- TGI [38]: 4.46 µM
- TGI [39]: > 100 µM
- TGI [40]: 0.219 µM
- TGI [41]: 25.2 µM
- TGI [42]: > 100 µM
- TGI [54]: 5.58 µM
- TGI [55]: 8.7 µM
- TGI [43]: > 69.2 µM
- TGI [56]: > 100 µM
- TGI [45]: > 100 µM
- TGI [47]: 1.06 µM
- TGI [48]: 395 nM
